Assay results from patent publication US20080070237A1, “Npas3 Mutant Mice and Uses for Screening and Testing Therapies for Schizophrenia and Related Neurological Disorders” (priority 2003, published 2008).
Counter-ions that a name gives are not always drawn. Like-named read-outs stand apart in the source and are kept apart here.

Columns and labels:
[1] = test system: Npas3−/− mice; assay type: in vivo, mouse
Experimental: (§1) Locomotor Activity Tests. For all locomotor experiments, activity is measured in a 41×41×30 cm Omnitech Digiscan activity monitor equipped with 16 pairs of photodetector-LED beams along the x and y axis. (Accuscan Electronics, Columbus, Ohio). […] After the acclimation period, Baseline Locomoter Activity Test results are recorded for each test mouse. Subsequently, locomotor activity is tested following pharmacological challenges of three neurotransmitter pathways involved in schizophrenia and other neurological disorders. The pathways and the drugs used to challenge each include:
(§2) a. Methamphetamine (a dopamine pathway agonist) 1.0 mg/kg in the form of D-methamphetamine-HCL (Sigma; St. Louis, Mo.). Methamphetamine is a strong dopamine agonist that will activate D1 and D2 receptor signaling.
(§3) b. Haloperidol (a dopamine pathway antagonist) 0.3 mg/kg or 1.0 mg/kg (Tocris; Ellisville, Mo.).
(§4) The test drug is 0.3 mg/kg clozapine (Sigma; St. Louis, Mo.). An atypical neuroleptic agent, clozapine, which has a high affinity for serotonin 5-HT2 and 5-HT6 receptors, is administered to determine the involvement of serotonergic pathways. Although clozapine can also antagonize both D1 and D2-like receptors, ten times higher concentrations are necessary to inhibit dopamine-dependent hyperactivity
(§5) The test drugs are 1.0 mg/kg MK-801 or 0.3 mg/kg MK-801 (ICN Biomedicals Inc.; Aurora, Ohio). MK-801 is a noncompetitive NMDA receptor antagonist.
(§6) Each drug is administered in a subcutaneous injection volume of 5 mL/kg body weight. Post-challenge activity is measured for three hours. Horizontal activity counts (scored by visual observance or breaking a light beam) and total distance are recorded during the pre- and post-challenge periods at 3-minute intervals with VersaMax software. All Locomoter Activity Tests are performed on mice at 7-9 weeks of age, with n=12. All values are expressed as mean±SEM. Statistical analyses are performed using appropriate analysis of variance (ANOVA) followed by adapted post hoc comparisons.

[2] = test system: Npas3+/+ control mice; assay type: in vivo, mouse
Experimental: as §1, §2, §3, §4, §5, §6

[3] = FIG. 28 dose of MK-801 (not stated at the place; b105: 1.0 or 0.3 mg/kg), subcutaneous
[4] = FIG. 28 dose of MK-801, subcutaneous
[5] = lower dose 0.1 mg/kg, data not shown
[6] = 0.3 mg/kg subcutaneous, post-challenge activity measured for three hours
[7] = 1.0 mg/kg subcutaneous, post-challenge activity measured for three hours

SMILES: C[C@]12N[C@H](Cc3ccccc31)c1ccccc12 [MK-801]
- horizontal locomotor activity after drug challenge [1, 3]: dramatic suppression of locomotor activity
- stereotype (stereotypy) after drug challenge [1, 4]: induced hyperstereotype
- locomotor activity after drug challenge [1, 5]: potently activated locomotion
- horizontal locomotor activity after drug challenge [2, 3]: increased locomotor activity
- stereotype (stereotypy) after drug challenge [2, 4]: did not increase the levels of stereotype
- locomotor activity after drug challenge [2, 5]: did not induce hyperactivity

SMILES: O=C(CCCN1CCC(O)(c2ccc(Cl)cc2)CC1)c1ccc(F)cc1 [haloperidol, Haloperidol]
- horizontal locomotor activity after drug challenge [1, 6]: partial reduction in activity
- horizontal locomotor activity after drug challenge [2, 6]: substantial impairment in locomotor activity

SMILES: CN[C@@H](C)Cc1ccccc1 [methamphetamine, D-methamphetamine-HCL]
- horizontal locomotor activity after drug challenge [1, 7]: failure of methamphetamine to increase locomotor activity
- horizontal locomotor activity after drug challenge [2, 7]: increases locomotor behavior
